Peptide text beside a SMILES is read from it.
Legend:
[1] = molecular target: α-chymotrypsin (Bos taurus, UniProt P00766); conditions: after 15 minutes at room temperature; 10:1 substrate:enzyme; 0.5 M ammonium acetate, pH 8
[2] = test system: intestinal enzymes such as carboxypeptidase and chymotrypsin; experiment: hydrolysis in the gastrointestinal tract or blood of the consumer; assay type: in vivo; conditions: after drinking a sweetened beverage

does not hydrolyze cleave or break down in the gastrointestinal tract or blood [2] | Structure (SMILES) | hydrolysis by α-chymotrypsin [1]
 | COC(=O)[C@H](Cc1ccccc1)NC(=O)[C@@H](N)CC(=O)O [aspartame] (H-Asp-Phe-OMe) | hydrolyzed
at least 24 hours | COC(=O)[C@H](Cc1ccccc1)NC(=O)C1(N)CC1C(=O)O (some centres unmarked) [Example XXXVIII, 1-Aminocyclopropane-2-carboxylic Acid-1-carboxyl Phenylalanine Methyl Ester] | 

From EP0135429B1, “The synthesis of cyclopropane amino acids and peptides” (THE UNIVERSITY OF GEORGIA RESEARCH FOUNDATION, INC., priority 1983, dated 1992)
